Assay results reported in patent US12329765B2, “Targeted nanoparticle for the treatment of traumatic brain injury and other CNS diseases” (priority 2021, dated 2025).

Key:
[1] = in vivo; cited from earlier work
[2] = Minocycline forced degradation (acid, base, H2O2, light) by HPLC; format: physicochemical
Description: Measuring the drug molecule's stability is essential as it directly impacts the formulation strategy when designing the drug-loaded nanoparticle.

[3] = In vivo toxicity: gross observable behavioral effects (Irwin); design: species or system rat; conditions: 35 days
[4] = rat models; cited from earlier work
[5] = 35 day observation
Method: Before treatment, body weight was determined for all the animals. During the course of observation period of 35 days, the animals were followed up twice daily for symptoms of any adverse effect and were physically examined for the sign of morbidity throughout the study period.
On day 0, 15 and 35, all the animals were weighed, and their weights were recorded.

Row | SMILES | time to disappearance from the cochlea [1] [h] | recovery at 1 h, 100 μg/mL ([2]; 1 M HCl solution, HCl (1 M, 1 h RT)) [%] | recovery at 1 h, 100 μg/mL ([2]; 1 M NaOH solution, NaOH (1 M, 1 h RT)) [%] | recovery at 24 h, 100 μg/mL ([2]; UV Light (24 h light exposure)) [%] | gross observable behavioral parameters (alertness, visual placing, passivity, spontaneous motor activity, touch response) [3] | half-life [4] [h] | body weight versus saline treated control group [5]
1 | C[C@H]1C[C@H]2[C@@H]3CCC4=CC(=O)C=C[C@]4(C)[C@@]3(F)[C@@H](O)C[C@]2(C)[C@@]1(O)C(=O)COP(=O)(O)O [free betamethasone phosphate, betamethasone phosphate] | ≤ 12 |  |  |  |  |  | 
2 | CN(C)c1ccc(O)c2c1C[C@H]1C[C@H]3[C@H](N(C)C)C(O)=C(C(N)=O)C(=O)[C@@]3(O)C(O)=C1C2=O [minocycline, Minocycline] |  | 88.9 | 74 | 98.54 ± 0.71 | mild changes in a few behavioral parameters | 2 to 3 | no reduction in body weight
